Patent US20230365592A1 (Agios Pharmaceuticals, Inc., priority 2022, published 2023)

These molecules were tested against T1, human PAH with the R408W mutation (Homo sapiens, UniProt P00439, R408W) (assay: Cell Based Phenylalanine Flux Assay). Conditions: A375 cells expressing R408W PAH; 24 hrs with compound, then 20 µM sepiapterin and 800 µM 13C9,15N-Phenylalanine for 4 hours; 13C-Tyrosine by LC-MS; average where tested multiple times; read-out: AC50.
T1 construct: expressed in transfected cells
T1 sequence (P00439 1-452 R408W): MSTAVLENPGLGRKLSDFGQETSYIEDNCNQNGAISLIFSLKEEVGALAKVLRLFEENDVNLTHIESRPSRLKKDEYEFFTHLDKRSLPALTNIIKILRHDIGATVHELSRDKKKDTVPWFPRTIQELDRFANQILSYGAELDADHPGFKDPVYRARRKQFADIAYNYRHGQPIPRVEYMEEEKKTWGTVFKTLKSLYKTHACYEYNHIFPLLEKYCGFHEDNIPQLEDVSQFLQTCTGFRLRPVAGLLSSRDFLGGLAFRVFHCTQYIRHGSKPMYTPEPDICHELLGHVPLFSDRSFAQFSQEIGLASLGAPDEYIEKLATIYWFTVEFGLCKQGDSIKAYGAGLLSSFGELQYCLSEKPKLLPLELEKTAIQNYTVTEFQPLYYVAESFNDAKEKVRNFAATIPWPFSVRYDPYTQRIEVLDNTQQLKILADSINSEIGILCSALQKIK
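Further: after compound treatment, cells received sepiapterin plus isotope-labelled Phenylalanine for 4 hours, then labelled Tyrosine in the medium was quantified, 10-point 2-fold dilution series run in duplicate.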

AC50	SMILES
1 to 5 µM	CN(C)Cc1ccc2c(C(=O)N3CCc4[nH]cnc4C3c3cc4cccc(F)n4n3)cnn2c1 (stereo not shown)
> 5 µM	O=C(c1cnc(-c2ncccn2)o1)N1CCc2[nH]cnc2C1c1cc2c(F)cccn2n1 (stereo not shown)
> 5 µM	O=C(c1nnc(-c2ncccn2)o1)N1CCc2[nH]cnc2C1c1cc2cccc(C(F)(F)F)n2n1 (stereo not shown)
1 to 5 µM	CC(C)(O)c1ncc(C(=O)N2CCc3[nH]cnc3C2c2cc3cccc(C(F)(F)F)n3n2)o1 (stereo not shown)
> 5 µM	Nc1cnc(N2CCc3[nH]cnc3C2c2cc3cccc(C(F)(F)F)n3n2)nc1 (stereo not shown)
1 to 5 µM	O=C(c1ocnc1C(F)F)N1CCc2[nH]cnc2C1c1cc2cc(C(F)(F)F)ccn2n1 (stereo not shown)
1 to 5 µM	O=C(c1nccs1)N1CCc2[nH]cnc2C1c1cc2ccccn2n1 (stereo not shown)

Same assay, conditions: A375 cells expressing human PAH R408W; 24 hrs compound incubation; 13C-Tyrosine by LC-MS; average where tested multiple times; read-out: AC50

AC50	SMILES
< 0.5 µM	Cc1nnc(N2CCc3[nH]cnc3[C@H]2c2cc3c(C4CC4)cccn3n2)o1 [Example 2187, (S)-2-(4-(4-cyclopropylpyrazolo[1,5-a]pyridin-2-yl)-1,4,6,7-tetrahydro-5H-imidazo[4,5-c]pyridin-5-yl)-5-methyl-1,3,4-oxadiazole]
1 to 5 µM	O=C(c1nc2ccccc2s1)N1CCc2[nH]cnc2[C@H]1c1cc2ccccn2n1 [Example 2000, (S)-benzo[d]thiazol-2-yl(4-(pyrazolo[1,5-a]pyridin-2-yl)-1,4,6,7-tetrahydro-5H-imidazo[4,5-c]pyridin-5-yl)methanone]
< 0.5 µM	Cc1cccn2nc([C@@H]3c4nc[nH]c4CCN3c3nnc(-c4ccc(F)cc4)o3)cc12 [Example 1891, (S)-2-(4-fluorophenyl)-5-(4-(4-methylpyrazolo[1,5-a]pyridin-2-yl)-1,4,6,7-tetrahydro-5H-imidazo[4,5-c]pyridin-5-yl)-1,3,4-oxadiazole]
1 to 5 µM	Fc1cccn2nc([C@@H]3c4nc[nH]c4CCN3c3nnc(C4CC4)o3)cc12 [Example 2433, (S)-2-cyclopropyl-5-(4-(4-fluoropyrazolo[1,5-a]pyridin-2-yl)-6,7-dihydro-1H-imidazo[4,5-c]pyridin-5(4H)-yl)-1,3,4-oxadiazole]
> 5 µM	FC(F)c1cccn2nc([C@H]3c4nc[nH]c4CCN3c3ccccn3)cc12 [Example 1978, (R)-4-(4-(difluoromethyl)pyrazolo[1,5-a]pyridin-2-yl)-5-(pyridin-2-yl)-4,5,6,7-tetrahydro-1H-imidazo[4,5-c]pyridine]
< 0.5 µM	O=C(c1nnc(-c2ncccc2F)o1)N1CCc2[nH]cnc2[C@H]1c1cc2c(C3CC3)cccn2n1 [Example 1855, (S)-(4-(4-cyclopropylpyrazolo[1,5-a]pyridin-2-yl)-1,4,6,7-tetrahydro-5H-imidazo[4,5-c]pyridin-5-yl)(5-(3-fluoropyridin-2-yl)-1,3,4-oxadiazol-2-yl)methanone]
< 0.5 µM	Fc1ccc(-c2nnc(N3CCc4[nH]cnc4[C@H]3c3cc4cccc(C(F)F)n4n3)o2)cc1 [Example 2131, (S)-2-(4-(7-(difluoromethyl)pyrazolo[1,5-a]pyridin-2-yl)-1,4,6,7-tetrahydro-5H-imidazo[4,5-c]pyridin-5-yl)-5-(4-fluorophenyl)-1,3,4-oxadiazole]
1 to 5 µM	Clc1cccc2cc([C@H]3c4nc[nH]c4CCN3c3ncccn3)nn12 [Example 2455, (R)-4-(7-chloropyrazolo[1,5-a]pyridin-2-yl)-5-(pyrimidin-2-yl)-4,5,6,7-tetrahydro-1H-imidazo[4,5-c]pyridine]

Same assay, conditions: A375 cells expressing human R408W PAH; 24 hrs compound incubation; 13C-Tyrosine by LC-MS; average where tested multiple times; read-out: AC50

AC50	SMILES
< 0.5 µM	Cc1ncccc1-c1nnc(C(=O)N2CCc3[nH]cnc3[C@H]2c2cc3c(C)cccn3n2)o1 [Example 1330, (S)-(4-(4-methylpyrazolo[1,5-a]pyridin-2-yl)-6,7-dihydro-1H-imidazo[4,5-c]pyridin-5(4H)-yl)(5-(2-methylpyridin-3-yl)-1,3,4-oxadiazol-2-yl)methanone]
1 to 5 µM	O=C(c1nnc(-c2ncccn2)o1)N1CCc2[nH]cnc2[C@@H]1c1cc2c(C(F)(F)F)cccn2n1 [Example 1380, (R)-(5-(pyrimidin-2-yl)-1,3,4-oxadiazol-2-yl)(4-(4-(trifluoromethyl)pyrazolo[1,5-a]pyridin-2-yl)-6,7-dihydro-1H-imidazo[4,5-c]pyridin-5(4H)-yl)methanone]
< 0.5 µM	CC(C)(F)c1nnc(C(=O)N2CCc3[nH]cnc3[C@H]2c2cc3c(C(F)(F)F)cccn3n2)o1 [Example 950, (S)-(5-(2-fluoropropan-2-yl)-1,3,4-oxadiazol-2-yl)(4-(4-(trifluoromethyl)pyrazolo[1,5-a]pyridin-2-yl)-6,7-dihydro-1H-imidazo[4,5-c]pyridin-5(4H)-yl)methanone]
< 0.5 µM	Cc1ncccc1-c1nnc(C(=O)N2CCc3[nH]cnc3[C@H]2c2cc3c(F)cccn3n2)o1 [Example 1328, (S)-(4-(4-fluoropyrazolo[1,5-a]pyridin-2-yl)-6,7-dihydro-1H-imidazo[4,5-c]pyridin-5(4H)-yl)(5-(2-methylpyridin-3-yl)-1,3,4-oxadiazol-2-yl)methanone]
> 5 µM	Cc1cccc(-c2nnc(C(=O)N3CCc4[nH]cnc4[C@@H]3c3cc4c(Cl)cccn4n3)o2)n1 [Example 1430, (R)-(4-(4-chloropyrazolo[1,5-a]pyridin-2-yl)-6,7-dihydro-1H-imidazo[4,5-c]pyridin-5(4H)-yl)(5-(6-methylpyridin-2-yl)-1,3,4-oxadiazol-2-yl)methanone]
0.5 to 1 µM	Cc1nc(C(C)(C)F)oc1C(=O)N1CCc2[nH]cnc2[C@@H]1c1cc2ccccn2n1 [Example 1251, (R)-(2-(2-fluoropropan-2-yl)-4-methyloxazol-5-yl)(4-(pyrazolo[1,5-a]pyridin-2-yl)-6,7-dihydro-1H-imidazo[4,5-c]pyridin-5(4H)-yl)methanone]
< 0.5 µM	CC(C)(F)c1nc(C(F)F)c(C(=O)N2CCc3[nH]cnc3[C@H]2c2cc3cccc(Cl)n3n2)o1 [Example 1232, (S)-(4-(7-chloropyrazolo[1,5-a]pyridin-2-yl)-6,7-dihydro-1H-imidazo[4,5-c]pyridin-5(4H)-yl)(4-(difluoromethyl)-2-(2-fluoropropan-2-yl)oxazol-5-yl)methanone]
< 0.5 µM	O=C(c1ocnc1C(F)F)N1CCc2[nH]cnc2[C@H]1c1cc2c(F)cccn2n1 [Example 758, (S)-(4-(difluoromethyl)oxazol-5-yl)(4-(4-fluoropyrazolo[1,5-a]pyridin-2-yl)-6,7-dihydro-1H-imidazo[4,5-c]pyridin-5(4H)-yl)methanone]
0.5 to 1 µM	O=C(c1nnc(-c2ccn(C(F)(F)F)n2)o1)N1CCc2[nH]cnc2[C@H]1c1cc2c(OC(F)F)cccn2n1 [Example 1708, (S)-(4-(4-(difluoromethoxy)pyrazolo[1,5-a]pyridin-2-yl)-6,7-dihydro-1H-imidazo[4,5-c]pyridin-5(4H)-yl)(5-(1-(trifluoromethyl)-1H-pyrazol-3-yl)-1,3,4-oxadiazol-2-yl)methanone]
< 0.5 µM	CC(C)n1nccc1C(=O)N1CCc2[nH]cnc2[C@H]1c1cc2c(F)cccn2n1 [Example 858, (S)-(4-(4-fluoropyrazolo[1,5-a]pyridin-2-yl)-6,7-dihydro-1H-imidazo[4,5-c]pyridin-5(4H)-yl)(1-isopropyl-1H-pyrazol-5-yl)methanone]
0.5 to 1 µM	Cc1c(-c2nnc(C(=O)N3CCc4[nH]cnc4[C@H]3c3cc4c(OC(F)F)cccn4n3)o2)cnn1C [Example 1658, (S)-(4-(4-(difluoromethoxy)pyrazolo[1,5-a]pyridin-2-yl)-6,7-dihydro-1H-imidazo[4,5-c]pyridin-5(4H)-yl)(5-(1,5-dimethyl-1H-pyrazol-4-yl)-1,3,4-oxadiazol-2-yl)methanone]
1 to 5 µM	Cc1cccc(-c2nnc(C(=O)N3CCc4[nH]cnc4[C@@H]3c3cc4c(C(F)F)cccn4n3)o2)n1 [Example 1464, (R)-(4-(4-(difluoromethyl)pyrazolo[1,5-a]pyridin-2-yl)-6,7-dihydro-1H-imidazo[4,5-c]pyridin-5(4H)-yl)(5-(6-methylpyridin-2-yl)-1,3,4-oxadiazol-2-yl)methanone]
0.5 to 1 µM	O=C(c1nnc(-c2ccn(C(F)F)n2)o1)N1CCc2[nH]cnc2[C@H]1c1cc2c(OC(F)F)cccn2n1 [Example 1662, (S)-(4-(4-(difluoromethoxy)pyrazolo[1,5-a]pyridin-2-yl)-6,7-dihydro-1H-imidazo[4,5-c]pyridin-5(4H)-yl)(5-(1-(difluoromethyl)-1H-pyrazol-3-yl)-1,3,4-oxadiazol-2-yl)methanone]
< 0.5 µM	Cc1cccn2nc([C@@H]3c4nc[nH]c4CCN3C(=O)c3cnn4ccccc34)cc12 [Example 1286, (S)-(4-(4-methylpyrazolo[1,5-a]pyridin-2-yl)-6,7-dihydro-1H-imidazo[4,5-c]pyridin-5(4H)-yl)(pyrazolo[1,5-a]pyridin-3-yl)methanone]
> 5 µM	Cn1cc(-c2nnc(C(=O)N3CCc4[nH]cnc4[C@@H]3c3cc4ccc(Cl)cn4n3)o2)cn1 [Example 697, (R)-(4-(6-chloropyrazolo[1,5-a]pyridin-2-yl)-6,7-dihydro-1H-imidazo[4,5-c]pyridin-5(4H)-yl)(5-(1-methyl-1H-pyrazol-4-yl)-1,3,4-oxadiazol-2-yl)methanone]
1 to 5 µM	Cc1cccc2cc([C@H]3c4nc[nH]c4CCN3C(=O)c3oc(C(C)(C)O)nc3C(F)F)nn12 [Example 795, (R)-(4-(difluoromethyl)-2-(2-hydroxypropan-2-yl)oxazol-5-yl)(4-(7-methylpyrazolo[1,5-a]pyridin-2-yl)-6,7-dihydro-1H-imidazo[4,5-c]pyridin-5(4H)-yl)methanone]
